Assays:
[1] = molecular target: T1, SYK (Homo sapiens, UniProt P43405); assay: SYK enzyme assay (Flash plate assay / Caliper mobility shift assay); assay type: biochemical; conditions: for SYK (enzyme assay) % at 3 μM: 100% corresponds to zero effect, −50% corresponds to IC50
T1 construct: purchased BPS Bioscience, CA, USA
Procedure: The kinase assay is performed either as 384-well Flashplate assay (for e.g. Topcount measurement) or as 384-well Image-Flashplate assay (for LEADseeker measurement).
2.5 nM SYK, 400 nM Biotin-Aha-Aha-[…]
and 10 μM ATP (spiked with 0.3 μCi 33P-ATP/well) are incubated in a total volume of 50 μl (60 mM Hepes, 10 mM MgCl2, 1.2 mM Dithiothreitol, 0.02% Brij35, 0.1% BSA, pH 7.5) with or without test compound for 1 hours at 30° C. The reaction is stopped with 25 μl 200 mM EDTA. After 30 Min at 30° C. the liquid is removed and each well washed thrice with 100 μl 0.9% sodium chloride solution. Non-specific reaction is determined in presence of 0.1 μM Staurosporine. Radioactivity is measured with Topcount (when using Flashplates) or with LEADseeker (when using Image-Flashplates) respectively. Results (e.g. IC50-values) are calculated with program tools provided by the IT-department (e.g. Symyx Assay Explorer, Genedata Screener).
Enzymatic Assays Using the Caliper LifeSciences Technology
The assays described here are performed on the Caliper Life Sciences LC3000 system This technology provides data on enzyme activity via measurement of the relative amounts of phosphorylated or unphosphorylated fluorescently labelled substrate peptide at the end of an enzymatic reaction.
These different states of peptide are resolved by applying a potential difference across the sample. The presence of the charged phosphate group on the product (as opposed to the substrate) causes a different peptide mobility between the two peptides. This is visualized by excitation of the fluorescent label on the substrate and product peptides and represented as peaks within the analysis software.
In order to measure inhibitor activity of kinase inhibitors on this technology, a TTP Mosquito liquid handling instrument is used to place 0.25 ul of the appropriate concentration of inhibitor in 100% DMSO (for a dose response curve calculation) into each well of a 384-well plate. To this reaction components are added to a final volume of 25 ul. The table below indicates the sequences and concentrations for the assays described in this report. Standard components are 1 mM DTT (Sigma, D0632), 1 mM MgCl2 (Sigma, M1028), 100 mM HEPES pH 7.5 (Calbiochem, 391338), 0.015% Brij-35 (Sigma, B4184).
The reaction is incubated for 90 min at 25 C, and then stopped by the addition of 70 ul of Stop buffer (100 mM HEPES pH 7.5, 0.015% Brij-35, 10 mM EDTA (Sigma, E7889)).
The plate is read on a Caliper LC 3000 in an Off-Chip mobility shift assay format, on a 12-sipper chip. Unphosphorylated substrate and phosphorylated product peptide resolve as separate peaks allowing direct measurement of percentage of conversion of substrate to product. The percent conversion can be plotted against concentration of inhibitor to produce a sigmoidal dose response curve, from which an IC50 can be calculated using GeneData Condoseo or a similar product.

[2] = molecular target: GCN2 (Homo sapiens, UniProt Q9P2K8); assay: GCN2 enzyme assay (TR-FRET Lanthascreen, GFP-eIF2alpha substrate); assay type: biochemical; conditions: for GCN2 (enzyme assay) % at 10 μM: 100% corresponds to zero effect, −50% corresponds to IC50
GCN2, sequence (Q9P2K8 whole entry): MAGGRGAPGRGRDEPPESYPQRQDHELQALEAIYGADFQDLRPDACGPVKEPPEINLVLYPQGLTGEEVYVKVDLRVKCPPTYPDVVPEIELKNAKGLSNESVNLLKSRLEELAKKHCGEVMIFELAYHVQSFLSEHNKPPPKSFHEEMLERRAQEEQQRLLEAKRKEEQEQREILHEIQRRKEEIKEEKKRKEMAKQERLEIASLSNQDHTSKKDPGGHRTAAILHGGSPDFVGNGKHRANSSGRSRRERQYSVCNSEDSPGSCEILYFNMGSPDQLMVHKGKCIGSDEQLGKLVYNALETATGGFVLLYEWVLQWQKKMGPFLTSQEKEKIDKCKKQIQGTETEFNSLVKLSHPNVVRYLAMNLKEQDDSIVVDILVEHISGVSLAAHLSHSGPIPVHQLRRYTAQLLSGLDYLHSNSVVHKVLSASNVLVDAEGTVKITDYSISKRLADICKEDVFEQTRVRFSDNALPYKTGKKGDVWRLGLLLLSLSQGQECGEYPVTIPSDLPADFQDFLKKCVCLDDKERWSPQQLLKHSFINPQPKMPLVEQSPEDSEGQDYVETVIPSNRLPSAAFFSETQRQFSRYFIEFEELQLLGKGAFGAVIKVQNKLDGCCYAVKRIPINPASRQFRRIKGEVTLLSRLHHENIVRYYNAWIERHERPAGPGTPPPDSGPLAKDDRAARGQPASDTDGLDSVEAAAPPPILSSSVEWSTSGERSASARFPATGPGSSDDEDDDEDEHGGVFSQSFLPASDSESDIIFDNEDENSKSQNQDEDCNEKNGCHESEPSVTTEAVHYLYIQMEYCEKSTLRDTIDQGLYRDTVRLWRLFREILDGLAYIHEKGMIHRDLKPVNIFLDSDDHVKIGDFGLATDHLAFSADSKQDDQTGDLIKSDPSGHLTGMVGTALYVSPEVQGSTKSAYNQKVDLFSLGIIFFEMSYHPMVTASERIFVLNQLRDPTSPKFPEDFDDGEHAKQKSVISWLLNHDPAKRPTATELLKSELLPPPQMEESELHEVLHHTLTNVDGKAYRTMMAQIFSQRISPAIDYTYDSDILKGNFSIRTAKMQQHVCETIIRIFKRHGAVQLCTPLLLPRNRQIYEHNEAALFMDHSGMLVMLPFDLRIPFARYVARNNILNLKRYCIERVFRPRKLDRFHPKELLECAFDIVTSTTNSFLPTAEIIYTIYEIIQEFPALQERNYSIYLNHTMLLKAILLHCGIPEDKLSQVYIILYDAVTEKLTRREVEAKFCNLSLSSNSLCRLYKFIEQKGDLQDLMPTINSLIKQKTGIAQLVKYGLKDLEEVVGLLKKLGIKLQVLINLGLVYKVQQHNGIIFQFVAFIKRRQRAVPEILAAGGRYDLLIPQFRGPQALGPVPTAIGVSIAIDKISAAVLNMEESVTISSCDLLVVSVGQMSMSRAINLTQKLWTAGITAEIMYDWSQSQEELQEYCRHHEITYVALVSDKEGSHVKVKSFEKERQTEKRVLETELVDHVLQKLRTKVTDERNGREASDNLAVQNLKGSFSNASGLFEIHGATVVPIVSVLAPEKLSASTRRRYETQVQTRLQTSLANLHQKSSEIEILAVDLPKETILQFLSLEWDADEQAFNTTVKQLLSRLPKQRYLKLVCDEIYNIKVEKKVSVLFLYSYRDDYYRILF
Text: GCN2: Assay Principle & Conditions
This assay can quantificate the activity of the serin kinase GCN2 (general control non-derepressible-2).
This kinase is involved in the stress metabolism of cells. It is activated upon starvation (amino acid depletion). Its natural substrate is eIF2a (eukaryotic initiation factor 2 alpha subunit), a translation factor, which gets activated (phosphorylated) by GCN2 in case of an amino acid bottleneck in the cells. This in turn leads to a halt of the protein synthesis. Inhibition of GCN2 results in stopping this mechanism: The cell can not stop protein production upon “starvation” stress.
The assay is run in two steps: the enzymatic reaction and the detection step. In the first step GCN2 is incubated with 10 μM ATP and 80 nM of the GFP-labelled substrate eIF2alpha at room temperature.
The enzymatic reaction is stopped by addition of EDTA. The amount of phosphorylated eIF2alpha is determined by TR-FRET (Lanthascreen): A complex is formed consisting of antibody and GFP labelled phospho-eIF2a, which allows a FRET upon exitation at 340 nm.
Final Concentrations in the Enzymatic Reaction • Hepes, pH 7.0 50 mM • MgCl2 10 mM • MnCl2 5 mM • BSA 0.1% • DMSO 1% • ATP 10 uM • DTT 2 mM • GFP-eIF2a 80 nM (substrate) • GCN2 30 nM (enzyme)

| Structure (SMILES) | IC50 [1] | IC50 [2] | SYK (enzyme assay) % at 3 μM [1] | GCN2 (enzyme assay) % at 10 μM [2] |
| --- | --- | --- | --- | --- |
| CN(C)Cc1nc2cc(Nc3nc4cncc(-c5cnn(C)c5)n4n3)ccc2[nH]1 [Compound A14] | 1000 to 5000 nM | < 1000 nM | – | – |
| Cc1cc(Nc2nc3cncc(-c4ccc(N5CCOCC5)cc4)n3n2)ccc1N1CCN(C)CC1 [Compound A17, [3-methyl-4-(4-methyl-piperazin-1-yl)-phenyl]-[5-(4-morpholin-4-yl-phenyl)-[1,2,4]triazolo[1,5-a]pyrazin-2-yl]-amine] | 1000 to 5000 nM | < 1000 nM | – | – |
| Clc1cn2nc(Nc3cccnc3)nc2cn1 [Compound A20] | – | 1000 to 5000 nM | 1@3% | – |
| CC(C)(C#N)c1ccc(-c2cncc3nc(Nc4ccc(N5CCOCC5)cc4)nn23)cc1 [Compound A34, 2-Methyl-2-{4-[2-(4-morpholin-4-yl-phenylamino)-[1,2,4]triazolo[1,5-a]pyrazin-5-yl]-phenyl}-propionitrile] | 1000 to 5000 nM | 1000 to 5000 nM | – | – |
| Cc1ncc2nc(Nc3ccc(N4CCOCC4)cc3)nn2c1-c1cnn(C)c1 [Compound A44, [6-methyl-5-(1-methyl-1H-pyrazol-4-yl)-[1,2,4]triazolo[1,5-a]pyrazin-2-yl]-(4-morpholin-4-yl-phenyl)-amine] | 1000 to 5000 nM | 5000 to 10000 nM | – | – |
| Cn1cc(-c2ncc3nc(Nc4ccc(N5CCOCC5)cc4)nn3c2-c2cnn(C)c2)cn1 [Compound A46, [5,6-Bis-(1-methyl-1H-pyrazol-4-yl)-[1,2,4]triazolo[1,5-a]pyrazin-2-yl]-(4-morpholin-4-yl-phenyl)-amine] | 1000 to 5000 nM | – | – | −8@10% |
| CN1CCN(c2ccc(Nc3nc4cncc(-c5cnn(CCN6CCOCC6)c5)n4n3)cc2)CC1 [Compound A48, [4-(4-methyl-piperazin-1-yl)-phenyl]-{5-[1-(2-morpholin-4-yl-ethyl)-1H-pyrazol-4-yl]-[1,2,4]triazolo[1,5-a]pyrazin-2-yl}-amine] | 5000 to 10000 nM | < 1000 nM | – | – |
| O=C1Cc2cc(Nc3nc4cncc(-c5cnn(CCN6CCOCC6)c5)n4n3)ccc2N1 [Compound A49, 5-{5-[1-(2-morpholin-4-yl-ethyl)-1H-pyrazol-4-yl]-[1,2,4]triazolo[1,5-a]pyrazin-2-ylamino}-1,3-dihydro-indol-2-one] | – | 1000 to 5000 nM | −19@3% | – |
| Cc1cc(Nc2nc3cncc(-c4cnn(CCN5CCOCC5)c4)n3n2)ccc1N1CCN(C)CC1 [Compound A50, [3-methyl-4-(4-methyl-piperazin-1-yl)-phenyl]-{5-[1-(2-morpholin-4-yl-ethyl)-1H-pyrazol-4-yl]-[1,2,4]triazolo[1,5-a]pyrazin-2-yl}-amine] | – | < 1000 nM | −32@3% | – |
| Cc1cc(Nc2nc3cncc(-c4cnn(CCC(C)C)c4)n3n2)ccc1N1CCN(C)CC1 [Compound A51, {5-[1-(3-methyl-butyl)-1H-pyrazol-4-yl]-[1,2,4]triazolo[1,5-a]pyrazin-2-yl}-[3-methyl-4-(4-methyl-piperazin-1-yl)-phenyl]-amine] | < 1000 nM | < 1000 nM | – | – |
| CN1C(=O)Cc2cc(Nc3nc4cncc(-c5cnn(CCN6CCOCC6)c5)n4n3)ccc21 [Compound A52, 1-methyl-5-{5-[1-(2-morpholin-4-yl-ethyl)-1H-pyrazol-4-yl]-[1,2,4]triazolo[1,5-a]pyrazin-2-ylamino}-1,3-dihydro-indol-2-one] | – | 1000 to 5000 nM | −32@3% | – |

The next lines start with the values.

| IC50 [1] | IC50 [2] | SYK (enzyme assay) % at 3 μM [1] | GCN2 (enzyme assay) % at 10 μM [2] | Structure (SMILES) |
| --- | --- | --- | --- | --- |
| < 1000 nM | < 1000 nM | – | – | Cn1cc(-c2cncc3nc(Nc4ccc5c(c4)NC(=O)C5(C)C)nn23)cn1 [Compound A13, 3,3-dimethyl-6-[5-(1-methyl-1H-pyrazol-4-yl)-[1,2,4]triazolo[1,5-a]pyrazin-2-ylamino]-1,3-dihydro-indol-2-one] |
| 1000 to 5000 nM | < 1000 nM | – | – | O=C1Cc2cc(Nc3nc4cncc(-c5ccc(N6CCOCC6)cc5)n4n3)ccc2N1 [Compound A15, 5-[5-(4-morpholin-4-yl-phenyl)-[1,2,4]triazolo[1,5-a]pyrazin-2-ylamino]-1,3-dihydro-indol-2-one] |
| – | < 1000 nM | 1.5@3% | – | c1cncc(Nc2nc3cncc(-c4ccc(N5CCOCC5)cc4)n3n2)c1 [Compound A16, [5-(4-morpholin-4-yl-phenyl)-[1,2,4]triazolo[1,5-a]pyrazin-2-yl]-pyridin-3-yl-amine] |
| – | < 1000 nM | −15@3% | – | COc1cccc(Nc2nc3cnc(Br)cn3n2)c1 [Compound A22] |
| – | 1000 to 5000 nM | −8@3% | – | c1cncc(Nc2nc3cnc(-c4cccnc4)cn3n2)c1 [Compound A25, pyridin-3-yl-(6-pyridin-3-yl-[1,2,4]triazolo[1,5-a]pyrazin-2-yl]-amine] |
| – | 1000 to 5000 nM | −6@3% | – | Fc1ccc(-c2cncc3nc(Nc4cccnc4)nn23)cc1 [Compound A27, [5-(4-fluoro-phenyl)-[1,2,4]triazolo[1,5-a]pyrazin-2-yl]-pyridin-3-yl-amine] |
| – | < 1000 nM | −2@3% | – | COc1cccc(Nc2nc3cncc(-c4ccccc4)n3n2)c1 [Compound A28] |
| – | < 1000 nM | −33@3% | – | COc1cccc(Nc2nc3cncc(-c4cnn(C)c4)n3n2)c1 [Compound A30] |
| < 1000 nM | 1000 to 5000 nM | – | – | c1cc(N2CCOCC2)ccc1Nc1nc2cncc(-c3cn[nH]c3)n2n1 [Compound A31, (4-morpholin-4-yl-phenyl)-[5-(1H-pyrazol-4-yl)-[1,2,4]triazolo[1,5-a]pyrazin-2-yl]-amine] |
| – | 1000 to 5000 nM | −35@3% | – | c1ccc2ncc(-c3cncc4nc(Nc5ccc(N6CCOCC6)cc5)nn34)cc2c1 [Compound A32, (4-morpholin-4-yl-phenyl)-(5-quinolin-3-yl-[1,2,4]triazolo[1,5-a]pyrazin-2-yl)-amine] |
| < 1000 nM | < 1000 nM | – | – | Cn1cc(-c2cncc3nc(Nc4ccc(N5CCOCC5)cc4)nn23)cn1 [Compound A35, [5-(1-methyl-1H-pyrazol-4-yl)-[1,2,4]triazolo[1,5-a]pyrazin-2-yl]-(4-morpholin-4-yl-phenyl)-amine] |
| 1000 to 5000 nM | – | – | −4@10% | c1ccc(-c2ccccc2-c2cncc3nc(Nc4ccc(N5CCOCC5)cc4)nn23)cc1 [Compound A36, (5-biphenyl-2-yl-[1,2,4]triazolo[1,5-a]pyrazin-2-yl)-(4-morpholin-4-yl-phenyl)-amine] |
| 1000 to 5000 nM | – | – | 3@10% | COc1cc(Nc2nc3cncc(-c4ccccc4-c4ccccc4)n3n2)cc(OC)c1 [Compound A37] |
| < 1000 nM | – | – | 2@10% | Cn1cc(-c2c(-c3ccccc3)ncc3nc(Nc4ccc(N5CCOCC5)cc4)nn23)cn1 [Compound A45, [5-(1-methyl-1H-pyrazol-4-yl)-6-phenyl-[1,2,4]triazolo[1,5-a]pyrazin-2-yl]-(4-morpholin-4-yl-phenyl)-amine] |
| < 1000 nM | < 1000 nM | – | – | Cn1cc(-c2cncc3nc(Nc4ccc(C5(C#N)CC5)cc4)nn23)cn1 [Compound A47, 1-{4-[5-(1-methyl-1H-pyrazol-4-yl)-[1,2,4]triazolo[1,5-a]pyrazin-2-ylamino]-phenyl}-cyclopropanecarbonitrile] |
